Results as given in US6528516B1, “Methods for reducing intraocular pressure using A3 adenosine receptor antagonists” (Trustees of the University of Pennsylvania, The Center for …, priority 1998, dated 2003).
“Also recorded” adds a separate entry of the source. Like-named read-outs stand apart in the source and are kept apart here.

Columns and labels:
A1 receptors = biological target: T1, A1 receptors (Rattus norvegicus, UniProt P25099); assay: Radioligand binding, [3H]R-PIA, rat cerebral cortex membranes
T1 construct: A1 receptors from rat cerebral cortex membranes; from tissue; host or cells: rat cerebral cortex membranes
T1 sequence (P25099 1-326): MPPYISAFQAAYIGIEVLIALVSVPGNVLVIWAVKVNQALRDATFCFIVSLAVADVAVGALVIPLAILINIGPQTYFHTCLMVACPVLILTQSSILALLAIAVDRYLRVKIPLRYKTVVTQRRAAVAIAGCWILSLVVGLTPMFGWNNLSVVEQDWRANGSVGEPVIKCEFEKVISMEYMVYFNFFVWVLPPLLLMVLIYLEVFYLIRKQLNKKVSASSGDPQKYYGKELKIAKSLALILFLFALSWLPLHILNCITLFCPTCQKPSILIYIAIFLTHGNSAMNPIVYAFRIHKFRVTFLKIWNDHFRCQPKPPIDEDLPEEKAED
Protocol: Radioligand binding studies. Binding of [^3H]R-N^6-phenylisopropyladenosine ([^3H]R-PIA) to A1 receptors from rat cerebral cortex membranes and of [^3H]-2-[4-[(2-carboxyethyl)phenyl]ethylamino]-5′-N-ethylcarbamoyladenosine ([^3H]CGS 21680) to A2A receptors from rat striatal membranes was performed as described previously (Schwabe et al., Naunyn Schmiedeberg Arch. Pharmacol. 313:179-187, 1980; Jarvis et al., J. Pharmacol. Exp. Ther. 251:888-893, 1989) Adenosine deaminase (3 units/mL) was present during the preparation of the brain membranes, in a pre-incubation of 30 min at 30° C., and during the incubation with the radioligands. Nonspecific binding was determined in the presence of 10 μM (A1 receptors) or 20 μM (A2A receptors)2-chloroadenosine.
All non-radioactive compounds were initially dissolved in DMSO, and diluted with buffer to the final concentration, where the amount of DMSO never exceeded 1%. Incubations were terminated by rapid filtration over Whatman GF/B filters, using a Brandell cell harvester (Brandell, Gaithersburg, MD). The tubes were rinsed three times with 3 mL buffer each.
At least five different concentrations of competitor, spanning 3 orders of magnitude adjusted appropriately for the IC50 of each compound, were used.

human A3 receptor [1] = biological target: T2, human A3 receptor (Homo sapiens, UniProt P0DMS8); assay: Radioligand binding, [125I]AB-MECA, HEK-293 cell membranes; design: host or cells: HEK-293; conditions: read-out: Ki(hA3)
T2 sequence (P0DMS8 1-318): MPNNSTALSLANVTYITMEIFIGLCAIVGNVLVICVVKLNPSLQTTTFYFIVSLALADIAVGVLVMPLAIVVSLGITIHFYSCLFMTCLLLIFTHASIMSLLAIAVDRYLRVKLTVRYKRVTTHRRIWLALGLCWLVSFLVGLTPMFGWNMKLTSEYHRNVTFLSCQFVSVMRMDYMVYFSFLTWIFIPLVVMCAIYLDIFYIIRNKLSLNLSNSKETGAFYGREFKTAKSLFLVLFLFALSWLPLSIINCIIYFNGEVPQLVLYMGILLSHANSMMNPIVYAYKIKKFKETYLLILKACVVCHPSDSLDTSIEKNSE
Protocol: Natl. Acad. Sci. […] Natl. Acad. Sci. U.S.A. 89:7432-7436, 1992) was performed as described at 4° C. (Olah et al., Mol. Pharmacol. 45:978-982, 1994). The assay medium consisted of a buffer containing 10 mM Mg^2+, 50 mM Tris, 3 units/mL adenosine deaminase, and 1 mM EDTA, at pH 8.0 (4° C.). […] Incubations were terminated by rapid filtration over Whatman GF/B filters, using a Brandell cell harvester (Brandell, Gaithersburg, MD). The tubes were rinsed three times with 3 mL buffer each. At least five different concentrations of competitor, spanning 3 orders of magnitude adjusted appropriately for the IC50 of each compound, were used. IC50 values, calculated with the nonlinear regression method implemented in the InPlot program (Graph-PAD, San Diego, Calif.), were converted to apparent Ki values using the Cheng-Prusoff equation (Cheng et al., Biochem.

[2] = test system: HCE (human ciliary epithelial) cell line, NPE cells; conditions: read-out: EC50 for isoosmotic shrinkage of cultured human NPE cells; cited from earlier work
human A3 receptor [3] = biological target: T2, human A3 receptor; conditions: read-out: Ki for binding to human A3 receptors; cited from earlier work
human A2 receptors = conditions: read-out: Ki for binding to human A2 receptors; cited from earlier work
[4] = test system: HCE (human ciliary epithelial) cell line, NPE cells; assay: Cell volume (shrinkage) of NPE cells in isosmotic solution, Coulter Counter, 5 μM gramicidin; assay type: cell-based; conditions: for effect of A3 antagonist on adenosine-stimulated isotonic shrinkage: 300 nM MRS-1097, 100 nM MRS-1191, 100 nM MRS-1523, 10 μM adenosine; for effect of A3 antagonist on shrinkage triggered by 3 μM CGS-21680: 100 nM MRS-1191 preincubation; for effect of A3 antagonist on IB-MECA-stimulated isotonic shrinkage: 2 min preincubation, MRS-1097 300 nM, MRS-1191 100 nM, 100 nM IB-MECA
Protocol: A 0.5-ml aliquot of the HCE cell suspension in DMEM was added to 20 ml of each test solution, which contained (in mM): 110.0 NaCl, 15.0HEPES [4-(2-hydroxyethyl)-1-piperazineethanesulfonic acid], 2.5 CaCl2, 1.2 MgCl2, 4.7 KCl, 1.2 KH2PO4, 30.0 NaHCO3, and 10.0 glucose, at a pH of 7.4 and osmolality of 298-305 mOsm. Parallel aliquots of cells were studied on the same day. One aliquot usually served as a control, and the others were exposed to different experimental conditions at the time of suspension. The same amount of solvent vehicle (dimethylformamide, DMSO or ethanol) was always added to the control and experimental aliquots. The sequence of studying the suspensions was varied to preclude systematic time-dependent artifacts (Civan et al., Exp. Eye Res. 54:181-191, 1992).
Cell volumes of isosmotic suspensions were measured with a Coulter Counter (model ZBI-Channelyzer II), using a 100-μm aperture (Civan et al., supra., 1994). As previously described (Wax et al., supra., 1993), the cell volume (vC) of the suspension was taken as the peak of the distribution function. Cell shrinkage was fit as a function of time (t) to a monoexponential function:
vC=v∞+(v0−v∞)−[e^−(t−t^0^)/τ] {1}
where v∞ is the steady-state cell volume, v0 is the cell volume at the first point (t0) of the time course to be fit, and τ is the time constant of the shrinkage. For purposes of data reduction, the data were normalized to the first time point, taken to be 100% isotonic volume. Fits were obtained by nonlinear least-squares regression analysis, permitting both v∞and τ to be variables.
In order to differentiate among these receptors, the experiments were repeated in the present study using a series of agonists and antagonists selective for these receptors. As we wished to identify the effects of these receptors specifically on Cl^− channels, 5 μM gramicidin D was included in all solutions to eliminate any potential contribution from K^+ channels. This ionophore readily partitions into plasma membranes to form a cation-selective pore, and is widely used for studying volume regulation (Hoffmann et al., in Interaction of Cell Volume and Cell Function, Lang et al., eds., Springer, Heidelberg, Germany, pp. 188-248, (ACEP Series 14), 1993)). Under these conditions, release of cell Cl^− becomes the rate-limiting factor in both hypo-(Civan et al., Exp. Eye Res. 54:181-191, 1992) and isoosmotic cell shrinkage (Carre et al., supra., 1997).

[5] = biological target: T3, recombinant human A2B receptors (Homo sapiens, UniProt P29275); assay: Radioligand binding to recombinant human A2B receptors; conditions: at 10 μM
T3 sequence (P29275 1-332): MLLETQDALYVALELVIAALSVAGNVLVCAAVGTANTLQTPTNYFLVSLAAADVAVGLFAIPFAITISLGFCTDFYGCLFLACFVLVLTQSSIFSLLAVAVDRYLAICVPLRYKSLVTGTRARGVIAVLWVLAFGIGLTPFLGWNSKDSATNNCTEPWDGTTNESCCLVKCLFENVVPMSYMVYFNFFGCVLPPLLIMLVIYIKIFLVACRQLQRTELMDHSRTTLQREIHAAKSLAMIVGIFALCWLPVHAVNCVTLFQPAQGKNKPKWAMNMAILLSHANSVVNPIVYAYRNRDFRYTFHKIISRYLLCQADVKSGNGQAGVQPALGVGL

Water solubility = assay type: physicochemical; conditions: room temperature
Protocol: 100 μL of de-ionized water was saturated with 5 mg 11 with heating. After cooling to room temperature and the disappearance of turbidity, 50 μL of the clear supernatant was withdrawn and lyophilized to give 1.1 mg of 11.

human A3 receptor [6] = biological target: T2, human A3 receptor; assay: Adenylate cyclase assay, CHO cell membranes, forskolin stimulated; assay type: biochemical

## CCOC(=O)c1c(CC)c(C(=O)SCC)c(CC)[n+](C)c1C1CCCC1 [Compound 23, 1-Methyl-2,4-diethyl-3-(ethylsulfanylcarbonyl)-5-ethyloxycarbonyl-6-cyclopentylpyridinium Iodide]
A1 receptors
  Ki: 11500 nM
Human A3 receptor [1]
  Ki: 695 nM

## Nc1ncnc2c1ncn2[C@@H]1O[C@H](CO)[C@@H](O)[C@H]1O [adenosine]
[2]
  EC50: 3000 to 10000 nM

## CCCOC(=O)c1c(-c2ccccc2)nc(CC)c(C(=O)SCC)c1CCC [MRS-1523]
Human A3 receptor [3]
  Ki: 19 nM
Human A2 receptors
  Ki: 2050 nM
[4]
  effect of A3 antagonist on adenosine-stimulated isotonic shrinkage: prevented the characteristic shrinkage
[4]; listed as MRS 1523
  effect of A3 antagonist on adenosine-stimulated isotonic shrinkage: eliminated the actions of adenosine; also recorded: blocked the shrinkage

## CCOC(=O)C1=C(C2CCCC2)N(C)C(CC)=C(C(=O)SCC)C1CC (stereo not drawn) [Compound 25, 1-Methyl-2,4-diethyl-3-(ethylsulfanylcarbonyl)-5-ethyloxycarbonyl-6-cyclopentyl-1,4-dihydropyridine]
A1 receptors; at 100 μM
  displacement at rat A1 receptors: 34 ±1%
Human A3 receptor [1]
  Ki: 6400 ± 780 nM

## CCOC(=O)C1=C(C)NC(c2ccccc2)=C(C(=O)OCc2ccccc2)C1C#Cc1ccccc1 (racemic) [MRS-1191, 3-ethyl 5-benzyl-2-methyl-6-phenyl-4-phenylethynyl-1,4-(±)-dihydropyridine-3,5-dicarboxylate]
Human A2 receptors
  Ki: > 100000 nM
[4]
  effect of A3 antagonist on shrinkage triggered by 3 μM CGS-21680: abolished this effect; also recorded: blocked
  effect of A3 antagonist on adenosine-stimulated isotonic shrinkage: prevented the characteristic shrinkage
  effect of A3 antagonist on IB-MECA-stimulated isotonic shrinkage: prevented characteristic shrinkage
[4]; listed as MRS 1191
  effect of A3 antagonist on shrinkage triggered by 3 μM CGS-21680: prevented this shrinkage
  effect of A3 antagonist on adenosine-stimulated isotonic shrinkage: blocked the shrinkage
  effect of A3 antagonist on IB-MECA-stimulated isotonic shrinkage: prevent the shrinkage
[4]; 100 nM antagonist alone
  effect on cell volume in the absence of IB-MECA: did not affect cell volume
[5]
  displacement of radioligand binding to recombinant human A2B receptors: did not displace radioligand binding

## CCOC(=O)c1c(CC)c(C(=O)SCC)c(CC)[n+](C)c1-c1ccccc1.[I-] [Compound 11, 1-Methyl-2,4-Diethyl-3-(ethylsulfanylcarbonyl)-5-ethyloxycarbonyl-6-phenylpyridinium Iodide]
Water solubility; de-ionized water, water, thermodynamic from solid
  solubility: 42.8 mM
Water solubility; listed as MRS 1649
  water solubility: 43 mM
Human A3 receptor [6]
  KB relative to the Ki value in binding to human A3 receptors: approximately 1.8 times
Human A3 receptor [6]; 10 μM of 11
  shift of the IB-MECA concentration response curve to the right: 26 fold
Human A3 receptor [6]; read-out: KB value (Schild analysis)
  Kb: 399 nM
Human A3 receptor [1]
  Ki: 219 nM
